These results are taken from patent publication US12414960B2, “Analogues of oleuropein and oleacein and uses thereof” (Attica Sciences Ltd., priority 2020, dated 2025).

Test [1] is described as follows: Ferric reducing antioxidant power (FRAP) assay. The class given is biochemical. To be noted: NS = not statistically significant. An excerpt:
Reducing power is associated with antioxidant activity and may serve as a significant reflection of the antioxidant activity. Compounds with reducing power indicate that they are electron donors and can reduce the oxidized intermediates of lipid peroxidation processes, so that they can act as primary and secondary antioxidants.
In this assay, the yellow color of the test solution changes to various shades of green and blue depending on the reducing power of each compound. Presence of reducers causes the conversion of the Fe3+/ferricyanide complex used in this method to the ferrous form which when it reacts with iron chloride it gives a complex which absorbs at 700 nm. The higher the absorption at 700 nm, the greater the reducing capacity (FIG. 6).
The ferric reducing antioxidant capacity of the GS compounds was investigated by using the potassium ferricyanide-ferric chloride method (Tundis, Rosa et al. LWT—Food Science and Technology, 2013, 53: 370-377). Briefly, 0.2 mL of each of the GS compounds, 2.5 mL of phosphate buffer (0.2 M, pH 6.6), and 2.5 mL of potassium ferricyanide K3Fe(CN)6 (1%) were mixed and incubated at 50° C. for 20 min, to reduce ferricyanide into ferrocyanide. The reaction was stopped by adding 2.5 mL of 10% (w/v) trichloroacetic acid followed by centrifugation at 1000 rpm for 10 min. Finally, 2.5 mL of the upper layer was mixed with 2.5 mL of distilled water and 0.5 mL of FeCl3 (0.1%) and the absorbance was measured at 700 nm.

A short description of test [2]: Superoxide anion radical scavenging assay (NBT reduction). The format is biochemical. To be noted: NS = not statistically significant. An excerpt:
These radicals may also play an important role in the peroxidation of unsaturated fatty acids and possibly other susceptible substances.
Under aerobic conditions, superoxide anion radicals are generated nonenzymatically in a NADH-PMS system by oxidation of […] (NADH) with phenazine methosulphate (PMS) in the presence of dissolved oxygen. (See, Nimse, Satish B. et al., RSC Adv, 2015, 5: 27986, “Free radicals, natural antioxidants, and their reaction mechanisms”). The superoxide anion radical O2.^− reduces the pale yellow colored nitroblue tetrazolium cation (NBT^2+) to a blue colored formazan dye, which is measured spectrophotometrically at 560 nm. The decrease of absorbance at 560 nm with antioxidant indicates the consumption of […] in the reaction mixture (FIG. 4).
The superoxide anion radical scavenging activity of each GS compound was determined using the nitro-blue tetrazolium (NBT) reduction method (Cos, Paul et al., J Nat Prod. 1998; 61(1): 71-76). The results were calculated as the percentage of inhibition according to the following formula: I (%)=100 [1−(S−SB)/(C−CB)] Where S, SB, C, and CB are the absorbance of the sample, the blank sample, the control, and the blank control, respectively.

The target in a further test is topoisomerase Type I. The test is described as follows: Plasmid relaxation assay. The class given is biochemical. The conditions noted are these: NS = not statistically significant. The text has this: Topoisomerases are nuclear enzymes that play essential roles in DNA replication, transcription, chromosome segregation, and recombination. Type I topoisomerases (classified into three distinct subfamilies—Type IA, IB, and IC based on structural considerations) are enzymes which make single-stranded cuts in DNA. DNA topoisomerases are important targets of approved and experimental anti-cancer agents. The protocol described here are of assays used to assess the ability of GS compounds to inhibit topoisomerase Type I activity based on relaxation of supercoiled DNA.
Plasmid DNA is a circular double-stranded DNA molecule that is mainly found in bacteria and has the ability to self-replicate on its own. Bacteria may have one or more copies of plasmid DNA that help them survive adverse conditions, as they usually carry antibiotic resistance genes. Even with the help of plasmids being transferred from bacterium to bacterium, it is possible to transfer information that contributes to their survival.
When plasmid DNA runs in an electrophoresis gel it appears mainly in three configurations: (1) The supercoiled conformation, in which the plasmid is intact (without fractures), is its most compact form; (2) The open circular, relaxed conformation, to which it goes when single-stranded fractures are caused. This is caused either from enzymatic or other factors (e.g., free radicals) that have the ability to cause DNA breakage; (3) The linear configuration to which it goes when it has double-stranded fractures. These configurations run at different speeds in an electrophoresis gel. The smaller the configuration, the faster it penetrates the agarose pores. […]
The ability of GS compounds to inhibit topoisomerase Type I activity was assessed based on the relaxation of supercoiled DNA as previously described (Kouka, Paraskevi et al., Oxid Med Cell Longev. 2019, Article ID 1870965). […] Finally, the gels were exposed to UV, the MultiImage Light Cabinet (Alpha Innotech, San Leandro, CA, USA) was used to capture the gel photos, and the results were analyzed with the Alpha View suite. […]

Test [3] deals with HCT-116 colon cancer tumor. The test is described as follows: HCT116 xenograft mouse model. The format is in vivo, nu/nu mice. The conditions noted are these: 20 mg/kg i.p. every 5 days, until 20 days post-treatment. As for the experimental part: The effect of GS27 on colon cancer tumor growth in mice was evaluated in a HCT116 xenograft mouse model. HCT-116 is a human colorectal cancer cell line that has a mutation in RAS proto-oncogene.
Xenograft tumors were generated by injecting HCT-116 colon cancer cells (5×10^6) into the right flank of female nu/nu mice (Charles River Laboratories). All mice developed tumors in 10 days with size of approximately 100 mm3. For each experiment, mice were randomly distributed into equal groups (4 mice per group) that were untreated, or treated by intraperitoneal injections every 5 days with 20 mg/kg GS27 or GS19 (oleocanthal). Tumor volume (average, SD) was evaluated until 20 days post-treatment.

As to `C/C=C1/[C@H](OC2OC(CO)C(O)C(O)C2O)OC=C(C(=O)O)[C@H]1CC(=O)OCCc1ccc(O)c(O)c1` (stereo in doubt) [GS6, (2S,4S,E)-4-(2-(3,4-dihydroxyphenethoxy)-2-oxoethyl)-3-ethylidene-2{[(2R,3S,4R,5R,6S)-3,4,5-trihydroxy-6-(hydroxymethyl)tetrahydro-2H-pyran-2-yl]oxy}-3,4dihydro-2H-pyran-5-carboxylic acid], the “Ferric Reducing Power Antioxidant Assay RP0.5AU” value in test [1] was found to be 36 μg extract/mL. Also, in test [2], the “Superoxide Anion Radical Scavenging Assay IC50” value was found to be 23.2 μg extract/mL. In addition, the “Plasmid Relaxation Assay IC50” value at topoisomerase Type I is listed as 5.94 μg extract/mL.

Take `C/C=C1/[C@H](O[C@@H]2O[C@H](CO)[C@@H](O)[C@H](O)[C@H]2O)OC=C(C(=O)OC)[C@H]1CC(=O)OCCc1ccc(O)c(O)c1` [GS1, oleuropein]: the “Ferric Reducing Power Antioxidant Assay RP0.5AU” value in test [1] was 35 μg extract/mL. The “Superoxide Anion Radical Scavenging Assay IC50” value in test [2] is given as 40.5 μg extract/mL. In addition, the “Plasmid Relaxation Assay IC50” value on topoisomerase Type I is recorded as 9.91 μg extract/mL.

In the case of `C/C=C(/C=O)[C@@H](CC=O)CC(=O)OCCc1ccc(O)c(O)c1` [GS17, (3S,4E)-4-formyl-3-(2-oxoethyl)-4-hexenoic acid 2-(3,4-dihydroxyphenyl)ethyl ester, reference compound], the “Ferric Reducing Power Antioxidant Assay RP0.5AU” value in test [1] was determined as 4.48 μg extract/mL. Moreover, the “Plasmid Relaxation Assay IC50” value on topoisomerase Type I was 9.5 μg extract/mL.

Take `C/C=C(/C=O)[C@@H](CC=O)CC(=O)OCCc1ccc(O)cc1` [GS19, (3S,4E)-4-formyl-3-(2-oxoethyl)-4-hexenoic acid 2-(4-hydroxyphenyl)ethyl ester, reference compound]: the “tumor size inhibition, HCT-116 colon cancer tumor growth” value in test [3] is listed as “did not show any significant effect”. Further, the “Ferric Reducing Power Antioxidant Assay RP0.5AU” value in test [1] is 133 μg extract/mL.

Regarding `C/C=C(/C=O)[C@@H](CC=O)CC(=O)SCCc1ccccc1` [GS27, S-phenethyl (3S,4E)-4-formyl-3-(2-oxoethyl)hex-4-enethioate], the “tumor size inhibition, HCT-116 colon cancer tumor growth” value in test [3] is > 60%.
